Results: patent publication US10752609B2, “GSK-3 inhibitors” (priority 2016, dated 2020)
Where two headings read alike, the source gives them in different places.

Experiments:
[1] = test system: pTau; assay: pTau assay (no method described); type: cell-based
[2] = biological target: GSK3α (Homo sapiens, UniProt P49840); assay: GSK3α kinase assay (Caliper LabChip3000 mobility shift, fluoresceinated peptide substrate)
[3] = biological target: GSK3β (Homo sapiens, UniProt P49841); assay: GSK3β kinase assay (Caliper LabChip3000 mobility shift, fluoresceinated peptide substrate); type: biochemical
GSK3β, sequence (P49841 whole entry, species assumed): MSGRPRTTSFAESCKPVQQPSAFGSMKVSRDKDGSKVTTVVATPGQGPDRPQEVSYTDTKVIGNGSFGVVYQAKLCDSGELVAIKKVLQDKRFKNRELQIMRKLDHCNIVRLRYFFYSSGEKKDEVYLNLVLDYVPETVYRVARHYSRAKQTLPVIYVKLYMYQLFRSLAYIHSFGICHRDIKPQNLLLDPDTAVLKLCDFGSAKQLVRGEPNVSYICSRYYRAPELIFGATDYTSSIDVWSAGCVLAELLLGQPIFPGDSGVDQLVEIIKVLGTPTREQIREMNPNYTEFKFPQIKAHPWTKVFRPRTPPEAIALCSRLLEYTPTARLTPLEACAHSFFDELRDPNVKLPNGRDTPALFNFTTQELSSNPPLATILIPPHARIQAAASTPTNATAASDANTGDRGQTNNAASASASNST

[4] = 250 pM enzyme, 20 uM ATP, 1.5 uM peptide, 20 hours room temperature, first value of cell GSK3β/GSK3α, read-out: GSK3β (nM), IC50

GSK3α, sequence (P49840 whole entry, species assumed): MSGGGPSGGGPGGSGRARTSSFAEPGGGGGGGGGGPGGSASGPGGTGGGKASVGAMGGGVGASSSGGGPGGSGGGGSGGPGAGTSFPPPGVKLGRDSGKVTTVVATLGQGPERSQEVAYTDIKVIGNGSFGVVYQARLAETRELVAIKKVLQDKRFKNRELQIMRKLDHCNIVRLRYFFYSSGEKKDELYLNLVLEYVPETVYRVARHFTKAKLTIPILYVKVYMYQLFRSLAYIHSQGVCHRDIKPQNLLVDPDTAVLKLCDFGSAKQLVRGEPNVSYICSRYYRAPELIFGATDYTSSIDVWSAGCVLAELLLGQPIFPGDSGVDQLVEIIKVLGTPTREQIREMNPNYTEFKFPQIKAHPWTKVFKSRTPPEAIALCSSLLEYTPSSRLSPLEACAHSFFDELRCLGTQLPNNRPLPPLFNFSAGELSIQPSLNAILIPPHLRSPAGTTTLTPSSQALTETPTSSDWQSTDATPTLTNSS

## O=C(Nc1cnc(F)cc1N1CCC(F)(F)CC1)c1ccnc(Nc2ccc(F)cc2)n1 [Example 180, N-(4-(4,4-Difluoropiperidin-1-yl)-6-fluoropyridin-3-yl)-2-((4-fluorophenyl)amino)pyrimidine-4-carboxamide]
[1]
  IC50: 68 nM
[2]
  IC50: 0.39 nM
[3]; [4]
  IC50: 0.9 nM

## O=C(Nc1cnc(F)cc1N1CCC(F)(F)CC1)c1ccnc(Nc2ccc(OC(F)F)cc2)n1 [Example 181, 2-((4-(Difluoromethoxy)phenyl)amino)-N-(4-(4,4-difluoropiperidin-1-yl)-6-fluoropyridin-3-yl)pyrimidine-4-carboxamide]
[1]
  IC50: 77 nM
[2]
  IC50: 1.6 nM
[3]; [4]
  IC50: 1.2 nM

## Cc1cc(N2CCC(F)(F)CC2)c(NC(=O)c2ccnc(Nc3ccc(Cl)cc3)n2)cn1 [Example 182, 2-((4-Chlorophenyl)amino)-N-(4-(4,4-difluoropiperidin-1-yl)-6-methylpyridin-3-yl)pyrimidine-4-carboxamide]
[1]
  IC50: 220 nM
[2]
  IC50: 1 nM
[3]; [4]
  IC50: 2.5 nM

## O=C(Nc1cnc(F)cc1N1CCC(F)(F)CC1)c1ccnc(NC2CCOCC2)n1 [Example 184, N-(4-(4,4-Difluoropiperidin-1-yl)-6-fluoropyridin-3-yl)-2-((tetrahydro-2H-pyran-4-yl)amino)pyrimidine-4-carboxamide]
[1]
  IC50: 400 nM
[2]
  IC50: 6 nM
[3]; [4]
  IC50: 11 nM

## O=C(Nc1cncc(-c2ccccc2F)c1)c1ccnc(Nc2cccc(C(F)(F)F)c2)n1 [Example 185, N-(5-(2-Fluorophenyl)pyridin-3-yl)-2-((3-(trifluoromethyl)phenyl)amino)pyrimidine-4-carboxamide]
[1]
  IC50: 530 nM
[2]
  IC50: 2.3 nM
[3]; [4]
  IC50: 5.9 nM

## O=C(Nc1cncc(-c2ccccc2F)c1)c1ccnc(NCC2CC2)n1 [Example 186, 2-((Cyclopropylmethyl)amino)-N-(5-(2-fluorophenyl)pyridin-3-yl)pyrimidine-4-carboxamide]
[1]
  IC50: 5000 nM
[2]
  IC50: 9.9 nM
[3]; [4]
  IC50: 6 nM

## O=C(Nc1cncc(-c2ccccc2F)c1)c1ccnc(Nc2cccc(OC(F)(F)F)c2)n1 [Example 187, N-(5-(2-Fluorophenyl)pyridin-3-yl)-2-((3-(trifluoromethoxy)phenyl)amino)pyrimidine-4-carboxamide]
[1]
  IC50: 2500 nM
[2]
  IC50: 7.9 nM
[3]; [4]
  IC50: 13 nM

## O=C(Nc1cncnc1OCC(F)(F)F)c1ccnc(NCC2CCC2)n1 [Example 188, 2-((Cyclobutylmethyl)amino)-N-(4-(2,2,2-trifluoroethoxy)pyrimidin-5-yl)pyrimidine-4-carboxamide]
[1]
  IC50: 180 nM
[2]
  IC50: 1 nM
[3]
  IC50: 0.83 nM

## CC(C)(C)CNc1nccc(C(=O)Nc2cncnc2OCC(F)(F)F)n1 [Example 189, 2-(Neopentylamino)-N-(4-(2,2,2-trifluoroethoxy)pyrimidin-5-yl)pyrimidine-4-carboxamide]
[1]
  IC50: 410 nM
[2]
  IC50: 0.8 nM
[3]; [4]
  IC50: 1.43 nM

## O=C(Nc1cncnc1OCC(F)(F)F)c1ccnc(NCC2CCOCC2)n1 [Example 190, 2-(((Tetrahydro-2H-pyran-4-yl)methyl)amino)-N-(4-(2,2,2-trifluoroethoxy)pyrimidin-5-yl)pyrimidine-4-carboxamide]
[1]
  IC50: 190 nM
[2]
  IC50: 2.6 nM
[3]
  IC50: 3.1 nM

## CC1(CNc2nccc(C(=O)Nc3cncnc3OCC(F)(F)F)n2)COC1 [Example 191, 2-(((3-Methyloxetan-3-yl)methyl)amino)-N-(4-(2,2,2-trifluoroethoxy)pyrimidin-5-yl)pyrimidine-4-carboxamide]
[1]
  IC50: 240 nM
[2]
  IC50: 4.3 nM
[3]
  IC50: 3.3 nM

## O=C(Nc1cncnc1OCC(F)(F)F)c1ccnc(NCC2CC2)n1 [Example 192, 2-((Cyclopropylmethyl)amino)-N-(4-(2,2,2-trifluoroethoxy)pyrimidin-5-yl)pyrimidine-4-carboxamide]
[1]
  IC50: 480 nM
[2]
  IC50: 4.8 nM
[3]; [4]
  IC50: 4.8 nM

## O=C(Nc1cncnc1)c1ccnc(Nc2cccc(-c3ccc(Cl)cc3)c2)n1 [Example 193, 2-((4′-Chloro-[1,1′-biphenyl]-3-yl)amino)-N-(pyrimidin-5-yl)pyrimidine-4-carboxamide]
[1]
  IC50: 620 nM
[2]
  IC50: 1.8 nM
[3]; [4]
  IC50: 3.4 nM

## O=C(Nc1cncnc1)c1ccnc(Nc2cccc(-c3ccccc3)c2)n1 [Example 194, 2-([1,1′-Biphenyl]-3-ylamino)-N-(pyrimidin-5-yl)pyrimidine-4-carboxamide]
[1]
  IC50: 390 nM
[2]
  IC50: 2.9 nM
[3]; [4]
  IC50: 4.4 nM

## Cc1ccccc1-c1cccc(Nc2nccc(C(=O)Nc3cncnc3)n2)c1 [Example 196, 2-((2′-Methyl-[1,1′-biphenyl]-3-yl)amino)-N-(pyrimidin-5-yl)pyrimidine-4-carboxamide]
[1]
  IC50: 840 nM
[2]
  IC50: 3.9 nM
[3]; [4]
  IC50: 5.2 nM

## O=C(Nc1cncnc1)c1ccnc(NCC2CC2c2ccc(F)cc2F)n1 (stereo not drawn) [Example 197, 2-(((2-(2,4-Difluorophenyl)cyclopropyl)methyl)amino)-N-(pyrimidin-5-yl)pyrimidine-4-carboxamide]
[1]
  IC50: 5100 nM
[2]
  IC50: 21 nM
[3]; [4]
  IC50: 24 nM

## O=C(Nc1cncnc1)c1ccnc(NCC2CC2c2ccc(F)cc2)n1 (stereo not drawn) [Example 198, 2-(((2-(4-Fluorophenyl)cyclopropyl)methyl)amino)-N-(pyrimidin-5-yl)pyrimidine-4-carboxamide]
[1]
  IC50: 6500 nM
[2]
  IC50: 28 nM
[3]; [4]
  IC50: 35 nM

## COc1cccc(C2CC2CNc2nccc(C(=O)Nc3cncnc3)n2)c1 (stereo not drawn) [Example 199, 2-(((2-(3-Methoxyphenyl)cyclopropyl)methyl)amino)-N-(pyrimidin-5-yl)pyrimidine-4-carboxamide]
[1]
  IC50: 6100 nM
[2]
  IC50: 33 nM
[3]; [4]
  IC50: 40 nM

## O=C(Nc1cncnc1)c1ccnc(NCC2CC2c2cccc(F)c2)n1 (stereo not drawn) [Example 200, 2-(((2-(3-Fluorophenyl)cyclopropyl)methyl)amino)-N-(pyrimidin-5-yl)pyrimidine-4-carboxamide]
[1]
  IC50: 6400 nM
[2]
  IC50: 59 nM
[3]; [4]
  IC50: 53 nM

## O=C(Nc1cncnc1)c1ccnc(Nc2ccccc2)n1 [Example 201, 2-(Phenylamino)-N-(pyrimidin-5-yl)pyrimidine-4-carboxamide]
[1]
  IC50: 4200 nM
[2]
  IC50: 45 nM
[3]; [4]
  IC50: 71 nM

## O=C(Nc1cncnc1)c1ccnc(N[C@H]2C[C@@H]2c2ccccc2)n1 [Example 202, 2-(((1S,2R)-2-Phenylcyclopropyl)amino)-N-(pyrimidin-5-yl)pyrimidine-4-carboxamide]
[1]
  IC50: 2300 nM
[2]
  IC50: 57 nM
[3]; [4]
  IC50: 120 nM

## O=C(Nc1cncnc1N1CCOCC1)c1ccnc(NCC2CCC2)n1 [Example 203, 2-((Cyclobutylmethyl)amino)-N-(4-morpholinopyrimidin-5-yl)pyrimidine-4-carboxamide]
[1]
  IC50: 600 nM
[2]
  IC50: 6.1 nM
[3]
  IC50: 8.7 nM

## CC(C)(C)CNc1nccc(C(=O)Nc2cncnc2N2CCOCC2)n1 [Example 204]
[1]
  IC50: 1100 nM
[2]
  IC50: 11 nM
[3]; [4]
  IC50: 13 nM

## O=C(Nc1cncnc1N1CCOCC1)c1ccnc(NCC2CC2)n1 [Example 205, 2-((Cyclopropylmethyl)amino)-N-(4-morpholinopyrimidin-5-yl)pyrimidine-4-carboxamide]
[1]
  IC50: 1800 nM
[2]
  IC50: 22 nM
[3]
  IC50: 19 nM

## O=C(Nc1cncnc1N1CCOCC1)c1ccnc(NCC2CCOCC2)n1 [Example 206, N-(4-Morpholinopyrimidin-5-yl)-2-(((tetrahydro-2H-pyran-4-yl)methyl)amino)pyrimidine-4-carboxamide]
[1]
  IC50: 4700 nM
[2]
  IC50: 99 nM
[3]; [4]
  IC50: 74 nM
